Square brackets hold non-standard residues; d marks the D form. Ends that are not written are not given here. * marks the point of attachment. Phe(4-NO2) = N[C@@H](Cc1ccc([N+](=O)[O-])cc1)C(=O)O; pNA = O=[N+]([O-])c1ccc(N*)cc1; Nle = CCCC[C@H](N)C(=O)O
Key:
Format in all cases: biochemical
human pepsin I [1] = assay: Digestion of the substrate by human pepsin I, assay by coloring p-NA (aminopeptidase M, absorbance at 405 nm); conditions: substrate 0.5 mM, 37° C.
Procedure: (§1) Formic acid buffer or glycine buffer (pH2.0˜3.0) containing each peptide (0.5 mM) prepared in Example 1˜5 (a)
(§2) An aqueous solution of human pepsin I or human pepsin II (0.01 mg/ml)
(§3) Aminopeptidase M (marketed from Beringer Manheim Co., derived from pig kidney) was dissolved into 1M Tris-HCl buffer (pH9.0) to be at concentration of 2U/I.
(§4) (2) Assay by Coloring p-NA
(§5) Enzyme solution I (0.1 ml) was added to Reagent (1.0 ml). After incubation of the mixture at 37° C. for 10 minutes, Enzyme solution II (0.05 ml) was added to the mixture solution (0.25 ml). After incubation of the mixture at 37° C. for 5 minutes, the increase in absorbance at 405 nm (Es) was determined. On the other hand, reagent blank value (E(BL)) was determined by the same procedure as above using purified water. According to the following, the increase in absorbance (E) was calculated.

human pepsin II [2] = target: T1, human pepsin II (Homo sapiens, UniProt P20142); assay: Digestion of the substrate by human pepsin II, assay by coloring p-NA (aminopeptidase M, absorbance at 405 nm); conditions: substrate 0.5 mM, 37° C.
T1 sequence (P20142 60-388): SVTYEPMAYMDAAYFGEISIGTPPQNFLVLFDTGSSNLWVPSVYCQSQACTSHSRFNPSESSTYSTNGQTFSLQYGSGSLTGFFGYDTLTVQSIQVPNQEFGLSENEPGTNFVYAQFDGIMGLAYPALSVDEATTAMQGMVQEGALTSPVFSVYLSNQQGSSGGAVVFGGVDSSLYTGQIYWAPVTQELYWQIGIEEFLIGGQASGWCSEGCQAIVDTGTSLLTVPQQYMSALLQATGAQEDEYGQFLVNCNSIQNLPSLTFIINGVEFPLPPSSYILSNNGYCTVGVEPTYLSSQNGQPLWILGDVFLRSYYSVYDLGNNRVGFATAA
Procedure: as §1, §2, §3, §4, §5

human pepsin I [3] = assay: Digestion of the substrate by human pepsin I, assay by HPLC (released H-Y-pNA); conditions: for ratio of relative activity of pepsin I/pepsin II: calculated according to the result from assay by HPLC; for Activitry of pepsin, Determination by HPLC, pepsin I: pepsin 909 ng/ml, substrate 0.5 mM, 37° C.
Procedure: as §1, §2
(§6) Enzyme solution I (0.1 ml) was added to Reagent (1.0 ml). After incubation of the mixture at 37° C. for 10, 30, 60 minutes, the mixture solution (0.3 ml) was collected. To the collected solution, 2N—NaOH (0.025 ml) was added to terminate the reaction. After addition of 2N—HCl (0.025 ml) to the mixture, protein was removed by the ultrafiltration. The assaying H-Y-pNA (Nle-pNA: Example 1 and 2; Tyr-pNA: Example 3; Phe-pNA: Example 4; Phe(NO2)-pNA: Example 5) which was released after digesting by human pepsin in the obtained solution was carried out by HPLC using C18 column.
(§7) The ratio of pepsin I/pepsin II was calculated according to the result from assay by HPLC. Such assay is carried out to confirm that a substrate was digested by pepsin I or pepsin II correctly and that H-Y-pNA was released.

human pepsin II [4] = target: T1, human pepsin II; assay: Digestion of the substrate by human pepsin II, assay by HPLC (released H-Y-pNA); conditions: pepsin 909 ng/ml, substrate 0.5 mM, 37° C.
Procedure: as §1, §2, §6, §7

[5] = reaction pH 3.0, pepsin 909 ng/ml
[6] = reaction pH 2.0, pepsin 909 ng/ml

Activitry of pepsin, Determination by p-NA, pepsin I (human pepsin I [1]; [5]) | Activitry of pepsin, Determination by p-NA, pepsin II (human pepsin II [2]; [5]) | Activitry of pepsin, Determination by HPLC, pepsin II (human pepsin II [4]; reaction pH 3.0) [μM/min · 909 ngEnz/ml] | Activitry of pepsin, Determination by p-NA, pepsin I (human pepsin I [1]; [6]) | Activitry of pepsin, Determination by p-NA, pepsin II (human pepsin II [2]; [6]) | Activitry of pepsin, Determination by HPLC, pepsin II (human pepsin II [4]; reaction pH 2.0) [μM/min · 909 ngEnz/ml] | Substance | ratio of relative activity of pepsin I/pepsin II (human pepsin I [3]; reaction pH 3.0) | Activitry of pepsin, Determination by HPLC, pepsin I (human pepsin I [3]; reaction pH 3.0) [μM/min · 909 ngEnz/ml] | ratio of relative activity of pepsin I/pepsin II (human pepsin I [3]; reaction pH 2.0) | Activitry of pepsin, Determination by HPLC, pepsin I (human pepsin I [3]; reaction pH 2.0) [μM/min · 909 ngEnz/ml]
908.3 mABS/10 min · 909 ngEnz/ml | 13.3 mABS/10 min · 909 ngEnz/ml | 0.16 | – | – | – | LysProIleGluPhePhe-pNA -2CF3COOH (KPIEFF-pNA; also: trifluoroacetate salt (2CF3COOH)) [Example 4] | 68.1 | 10.9 | – | –
– | – | – | 3036.2 mABS/10 min · 909 ngEnz/ml | 57.3 mABS/10 min · 909 ngEnz/ml | 0.69 | N^α-AcLysProIleGlu-Phe(NO2)-Nle-pNA.CF3COOH (Ac-KPIE[Phe(4-NO2)][Nle]-pNA; also: TFA salt) [Example 5(a)] | – | – | 52.8 | 36.4
100.0 mABS/10 min · 909 ngEnz/ml | 5.8 mABS/10 min · 909 ngEnz/ml | 0.07 | – | – | – | LysProIleGluPhePhe(NO2)-pNA.2CF3COOH (KPIEF[Phe(4-NO2)]-pNA; also: 2 TFA salt) [Example 5] | 17.1 | 1.2 | – | –
– | – | – | 1425.0 mABS/10 min · 909 ngEnz/ml | 30.8 mABS/10 min · 909 ngEnz/ml | 0.37 | LysProIleGluPheTyr-pNA.2CF3COOH (KPIEFY-pNA; also: TFA salt (2CF3COOH)) [Example 3] | – | – | 46.2 | 17.1
716.7 mABS/10 min · 909 ngEnz/ml | 30.8 mABS/10 min · 909 ngEnz/ml | 0.37 | – | – | – | LysProIleGluPheNle-pNA.2CF3COOH (KPIEF[Nle]-pNA; also: trifluoroacetate salt (2CF3COOH)) [Example 2] | 23.2 | 8.6 | – | –

Substance | Activitry of pepsin, Determination by p-NA, pepsin I (human pepsin I [1]; [5]) | Activitry of pepsin, Determination by p-NA, pepsin II (human pepsin II [2]; [5]) | Activitry of pepsin, Determination by HPLC, pepsin II (human pepsin II [4]; reaction pH 3.0) [μM/min · 909 ngEnz/ml] | Activitry of pepsin, Determination by p-NA, pepsin I (human pepsin I [1]; [6]) | Activitry of pepsin, Determination by p-NA, pepsin II (human pepsin II [2]; [6]) | Activitry of pepsin, Determination by HPLC, pepsin II (human pepsin II [4]; reaction pH 2.0) [μM/min · 909 ngEnz/ml] | ratio of relative activity of pepsin I/pepsin II (human pepsin I [3]; reaction pH 3.0) | Activitry of pepsin, Determination by HPLC, pepsin I (human pepsin I [3]; reaction pH 3.0) [μM/min · 909 ngEnz/ml] | ratio of relative activity of pepsin I/pepsin II (human pepsin I [3]; reaction pH 2.0) | Activitry of pepsin, Determination by HPLC, pepsin I (human pepsin I [3]; reaction pH 2.0) [μM/min · 909 ngEnz/ml]
N^α-Ac-LysProIleGluPheNle-pNA.CF3COOH (Ac-KPIEF[Nle]-pNA; also: TFA salt) [Example 1] | – | – | – | 4391.7 mABS/10 min · 909 ngEnz/ml | 45.8 mABS/10 min · 909 ngEnz/ml | 0.55 | – | – | 95.8 | 52.7
